Measurements reported in patent publication US10597388B2, “Pyridazinone herbicides” (FMC CORPORATION, priority 2014, dated 2020).

How the values were obtained:
Type in all cases: in vivo
[1] = system: blackgrass (Alopecurus myosuroides); assay: Test A greenhouse herbicide test, postemergence
In short: (§1)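 Greenhouse postemergence test: formulated chemicals sprayed on one- to two-leaf plants (2 to 10 cm), grown in loam soil blended with sand. Injury assessed visually about 10 d later against untreated controls, scored 0 (no effect) to 100 (complete control).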

[2] = system: galium (catchweed bedstraw, Galium aparine); assay: Test A greenhouse herbicide test, postemergence
In short: as §1

[3] = system: oilseed rape (Brassica napus); assay: Test C greenhouse herbicide test, pre- and postemergence
In short: (§2)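 Preemergence: seeds sown in a loam soil–sand blend and sprayed with test chemicals in a non-phytotoxic solvent mixture containing surfactant. Postemergence: plants grown in peat-based medium and treated at 2 to 18 cm (1- to 4-leaf stage). After 13 to 15 d in a greenhouse, injury was visually rated 0–100 against controls.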

[4] = system: crabgrass, large (large crabgrass, Digitaria sanguinalis); assay: as above
In short: as §2

[5] = system: ragweed (common ragweed, Ambrosia elatior); assay: as above
In short: as §2

[6] = system: foxtail, giant (giant foxtail, Setaria faberii); assay: as above
In short: as §2

[7] = system: lambsquarters (Chenopodium album); assay: as above
In short: as §2

[8] = system: morningglory (Ipomoea coccinea); assay: as above
In short: as §2

[9] = system: galium (catchweed bedstraw, Galium aparine); assay: as above
In short: as §2

[10] = system: barnyardgrass (Echinochloa crus-galli); assay: as above
In short: as §2

[11] = system: ryegrass, Italian (Italian ryegrass, Lolium multiflorum); assay: as above
In short: as §2

[12] = system: johnsongrass (Sorghum halepense); assay: as above
In short: as §2

[13] = system: wheat (winter wheat, Triticum aestivum); assay: as above
In short: as §2

[14] = 125 g ai/ha, 0 to 100 scale where 0 is no effect and 100 is complete control
[15] = 500 g ai/ha, visual rating after approx. 10 d, 0 to 100 scale (0 no effect, 100 complete control)
[16] = Postemergence, 31 g ai/ha, scale 0 to 100 (0 no effect, 100 complete control)
[17] = Postemergence, 125 g ai/ha, scale 0 to 100, 0 is no effect, 100 is complete control
[18] = Postemergence, 250 g ai/ha, scale 0 to 100, 0 no effect, 100 complete control, 13 to 15 d
[19] = Preemergence, 31 g ai/ha, scale 0 to 100, 0 is no effect, 100 is complete control
[20] = Preemergence, 62 g ai/ha, scale 0 to 100, 0 is no effect, 100 is complete control
[21] = Preemergence, 125 g ai/ha, scale 0 to 100, 0 is no effect, 100 is complete control
[22] = Preemergence, 250 g ai/ha, scale 0 to 100, 0 no effect, 100 complete control
[23] = postemergence, 62 g ai/ha, scale 0 to 100, 0 no effect, 100 complete control
[24] = 125 g ai/ha, visual rating after approx. 10 d, 0 to 100 scale (0 no effect, 100 complete control)
[25] = 500 g ai/ha, 0 to 100 scale, 0 is no effect, 100 is complete control
[26] = Postemergence, 31 g ai/ha, 0 to 100 scale (0 no effect, 100 complete control)

CCC(=O)Oc1c(C)nn(C)c(=O)c1-c1ccc(F)c2ccccc12 [Compound 113]
Plant response rating, Blackgrass [1, 14]: 90
Plant response rating, Blackgrass [1, 15]: 90
Plant response rating, Galium [2, 14]: 100
Plant response rating, Galium [2, 15]: 100
Plant response rating, Oilseed Rape [3, 16]: 0
Plant response rating, Oilseed Rape [3, 17]: 0
Plant response rating, Oilseed Rape [3, 18]: 0
Plant response rating, Oilseed Rape [3, 19]: 0
Plant response rating, Oilseed Rape [3, 20]: 0
Plant response rating, Oilseed Rape [3, 21]: 60
Oilseed Rape plant response rating [3, 22]: 90
Plant response rating, Crabgrass, Large [4, 16]: 5
Plant response rating, Crabgrass, Large [4, 17]: 25
Plant response rating, Crabgrass, Large [4, 18]: 70
Plant response rating, Crabgrass, Large [4, 19]: 0
Plant response rating, Crabgrass, Large [4, 20]: 35
Plant response rating, Crabgrass, Large [4, 21]: 75
Crabgrass, Large plant response rating [4, 22]: 90
Crabgrass, Large plant response rating [4, 23]: 15
Plant response rating, Ragweed [5, 16]: 90
Plant response rating, Ragweed [5, 17]: 98
Plant response rating, Ragweed [5, 18]: 100
Plant response rating, Ragweed [5, 19]: 65
Plant response rating, Ragweed [5, 20]: 95
Plant response rating, Ragweed [5, 21]: 85
Ragweed plant response rating [5, 22]: 95
Plant response rating, Foxtail, Giant [6, 16]: 20
Plant response rating, Foxtail, Giant [6, 17]: 30
Plant response rating, Foxtail, Giant [6, 18]: 70
Plant response rating, Lambsquarters [7, 16]: 98
Plant response rating, Lambsquarters [7, 17]: 100
Plant response rating, Lambsquarters [7, 18]: 100
Plant response rating, Lambsquarters [7, 19]: 90
Plant response rating, Lambsquarters [7, 20]: 85
Plant response rating, Lambsquarters [7, 21]: 90
Lambsquarters plant response rating [7, 22]: 100
Plant response rating, Morningglory [8, 16]: 98
Plant response rating, Morningglory [8, 17]: 100
Plant response rating, Morningglory [8, 18]: 100
Plant response rating, Morningglory [8, 19]: 85
Plant response rating, Morningglory [8, 20]: 95
Plant response rating, Morningglory [8, 21]: 98
Morningglory plant response rating [8, 22]: 100
Plant response rating, Galium [9, 16]: 95
Plant response rating, Galium [9, 17]: 95
Plant response rating, Galium [9, 18]: 95
Plant response rating, Galium [9, 19]: 100
Plant response rating, Galium [9, 20]: 90
Plant response rating, Galium [9, 21]: 98
Galium plant response rating [9, 22]: 98
Plant response rating, Barnyardgrass [10, 16]: 25
Plant response rating, Barnyardgrass [10, 17]: 35
Plant response rating, Barnyardgrass [10, 18]: 45
Plant response rating, Barnyardgrass [10, 19]: 10
Plant response rating, Barnyardgrass [10, 20]: 35
Plant response rating, Barnyardgrass [10, 21]: 65
Barnyardgrass plant response rating [10, 22]: 95
Barnyardgrass plant response rating [10, 23]: 35
Plant response rating, Ryegrass, Italian [11, 16]: 90
Plant response rating, Ryegrass, Italian [11, 17]: 95
Plant response rating, Ryegrass, Italian [11, 18]: 95
Plant response rating, Ryegrass, Italian [11, 19]: 95
Plant response rating, Ryegrass, Italian [11, 20]: 95
Plant response rating, Ryegrass, Italian [11, 21]: 90
Ryegrass, Italian plant response rating [11, 22]: 95
Plant response rating, Johnsongrass [12, 16]: 0
Plant response rating, Johnsongrass [12, 17]: 10
Plant response rating, Johnsongrass [12, 18]: 20
Plant response rating, Johnsongrass [12, 19]: 0
Plant response rating, Johnsongrass [12, 20]: 10
Plant response rating, Johnsongrass [12, 21]: 20
Johnsongrass plant response rating [12, 22]: 30
Plant response rating, Wheat [13, 16]: 5
Plant response rating, Wheat [13, 17]: 5
Plant response rating, Wheat [13, 18]: 15
Plant response rating, Wheat [13, 19]: 0
Plant response rating, Wheat [13, 20]: 30
Plant response rating, Wheat [13, 21]: 35
Wheat plant response rating [13, 22]: 50

Cc1ccc2sc(C)c(-c3c(OC(=O)C(C)(C)C)c(C)nn(C)c3=O)c2c1 [Compound 26]
Plant response rating, Blackgrass [1, 24]: 30
Blackgrass plant response rating [1, 25]: 70
Plant response rating, Galium [2, 24]: 70
Galium plant response rating [2, 25]: 90
Oilseed Rape plant response rating [3, 26]: 0
Plant response rating, Oilseed Rape [3, 17]: 5
Plant response rating, Oilseed Rape [3, 18]: 5
Oilseed Rape plant response rating [3, 23]: 0
Crabgrass, Large plant response rating [4, 26]: 5
Plant response rating, Crabgrass, Large [4, 17]: 20
Plant response rating, Crabgrass, Large [4, 18]: 25
Crabgrass, Large plant response rating [4, 23]: 20
Ragweed plant response rating [5, 26]: 15
Plant response rating, Ragweed [5, 17]: 85
Plant response rating, Ragweed [5, 18]: 90
Ragweed plant response rating [5, 23]: 70
Foxtail, Giant plant response rating [6, 26]: 15
Plant response rating, Foxtail, Giant [6, 17]: 40
Plant response rating, Foxtail, Giant [6, 18]: 65
Foxtail, Giant plant response rating [6, 23]: 25
Lambsquarters plant response rating [7, 26]: 75
Plant response rating, Lambsquarters [7, 17]: 90
Plant response rating, Lambsquarters [7, 18]: 98
Lambsquarters plant response rating [7, 23]: 85
Morningglory plant response rating [8, 26]: 98
Plant response rating, Morningglory [8, 17]: 100
Plant response rating, Morningglory [8, 18]: 100
Morningglory plant response rating [8, 23]: 100
Galium plant response rating [9, 26]: 90
Plant response rating, Galium [9, 17]: 95
Plant response rating, Galium [9, 18]: 95
Galium plant response rating [9, 23]: 95
Barnyardgrass plant response rating [10, 26]: 20
Plant response rating, Barnyardgrass [10, 17]: 30
Plant response rating, Barnyardgrass [10, 18]: 35
Barnyardgrass plant response rating [10, 23]: 25
Ryegrass, Italian plant response rating [11, 26]: 85
Plant response rating, Ryegrass, Italian [11, 17]: 90
Plant response rating, Ryegrass, Italian [11, 18]: 90
Ryegrass, Italian plant response rating [11, 23]: 90
Johnsongrass plant response rating [12, 26]: 5
Plant response rating, Johnsongrass [12, 17]: 5
Plant response rating, Johnsongrass [12, 18]: 5
Johnsongrass plant response rating [12, 23]: 5
Wheat plant response rating [13, 26]: 0
Plant response rating, Wheat [13, 17]: 0
Plant response rating, Wheat [13, 18]: 5
Wheat plant response rating [13, 23]: 0
